Results published in patent US9255094B2, “Pyrido[4,3-B]indoles and methods of use” (Medivation Technologies, Inc., priority 2009, dated 2016).

What was measured:
[1] = target: T1, human recombinant serotonin (5-Hydroxytryptamine) 5-HT2A receptor (Homo sapiens, UniProt P28223); assay: Serotonin 5-HT2A radioligand binding assay ([3H]Ketanserin); settings: 0.5 nM [3H]Ketanserin, CHO-K1 cells; for inhibition at 1 µM: compound at 1 μM, read-out: Percent Inhibition of ligand binding, Serotonin (1 μM) 5-HT2A; for inhibition at 0.1 µM: compound at 0.1 μM, read-out: Percent Inhibition of ligand binding, Serotonin (0.1 μM) 5-HT2A
T1 construct: expressed in transfected cells; host or cells: Chinese hamster ovary (CHO-K1) cells
T1 sequence (P28223 whole entry): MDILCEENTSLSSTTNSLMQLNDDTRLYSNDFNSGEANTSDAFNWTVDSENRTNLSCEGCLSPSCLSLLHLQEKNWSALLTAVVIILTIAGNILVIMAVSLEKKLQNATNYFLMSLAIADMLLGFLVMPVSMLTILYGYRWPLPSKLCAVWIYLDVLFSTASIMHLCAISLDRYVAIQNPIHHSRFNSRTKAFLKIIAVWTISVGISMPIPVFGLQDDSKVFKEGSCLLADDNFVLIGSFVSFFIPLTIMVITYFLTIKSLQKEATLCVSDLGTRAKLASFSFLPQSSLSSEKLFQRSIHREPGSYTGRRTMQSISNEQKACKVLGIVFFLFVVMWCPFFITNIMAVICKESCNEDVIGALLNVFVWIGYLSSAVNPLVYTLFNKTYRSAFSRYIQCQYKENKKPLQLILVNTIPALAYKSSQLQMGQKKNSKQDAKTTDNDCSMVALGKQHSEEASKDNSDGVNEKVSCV
Procedure: (§1) Compounds of the invention were incubated with 0.5 nM [^3H]Ketanserin for 60 min at 25° C. Non-specific binding was estimated in the presence of 1 μM Mianserin. Receptor proteins were filtered and washed, the filters were then counted to determine [^3H]Ketanserin specifically bound. Compounds were screened at 1 μM or lower, using 1% DMSO as vehicle. Biochemical assay results are presented as the percent inhibition of specific binding in Table 4.

[2] = target: human recombinant serotonin (5-Hydroxytryptamine) 5-HT7 receptor (Homo sapiens, UniProt P34969); assay: Serotonin 5-HT7 radioligand binding assay ([3H]LSD); settings: compound at 0.1 μM; 5.5 nM [3H]LSD; CHO cells; read-out: Percent Inhibition of ligand binding, Serotonin (0.1 μM) 5-HT7
Sequence of human recombinant serotonin (5-Hydroxytryptamine) 5-HT7 receptor (P34969 whole entry): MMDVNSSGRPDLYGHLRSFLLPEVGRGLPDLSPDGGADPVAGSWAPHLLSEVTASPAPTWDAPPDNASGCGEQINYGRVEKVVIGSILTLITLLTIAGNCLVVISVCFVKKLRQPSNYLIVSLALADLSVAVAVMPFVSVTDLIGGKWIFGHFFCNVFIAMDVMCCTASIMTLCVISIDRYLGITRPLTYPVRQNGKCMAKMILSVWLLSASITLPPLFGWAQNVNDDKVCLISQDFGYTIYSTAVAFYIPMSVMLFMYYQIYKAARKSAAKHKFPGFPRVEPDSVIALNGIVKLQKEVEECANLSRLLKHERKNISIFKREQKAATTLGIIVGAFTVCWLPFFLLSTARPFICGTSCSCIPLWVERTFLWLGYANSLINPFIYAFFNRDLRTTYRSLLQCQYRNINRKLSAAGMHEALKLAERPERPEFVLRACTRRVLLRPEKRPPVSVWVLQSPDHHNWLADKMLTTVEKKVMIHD
Procedure: Compounds of invention were incubated with 5.5 nM [^3H] Lysergic acid diethylamide (LSD) for 2 h at 25° C. […] Receptor proteins were filtered and washed, the filters were then counted to determine [^3H]LSD specifically bound. Compounds were screened at 1 μM or lower, using 1% DMSO as vehicle. Biochemical assay results are presented as the percent inhibition of specific binding in Table 4.

[3] = target: T2, human recombinant serotonin (5-Hydroxytryptamine) 5-HT6 receptor (Homo sapiens, UniProt P50406); assay: Serotonin 5-HT6 radioligand binding assay ([3H]LSD); settings: compound at 0.1 μM, HeLa cells, read-out: Percent Inhibition of ligand binding, Serotonin (0.1 μM) 5-HT6
T2 construct: expressed in transfected cells; host or cells: human HeLa cells
T2 sequence (P50406 whole entry): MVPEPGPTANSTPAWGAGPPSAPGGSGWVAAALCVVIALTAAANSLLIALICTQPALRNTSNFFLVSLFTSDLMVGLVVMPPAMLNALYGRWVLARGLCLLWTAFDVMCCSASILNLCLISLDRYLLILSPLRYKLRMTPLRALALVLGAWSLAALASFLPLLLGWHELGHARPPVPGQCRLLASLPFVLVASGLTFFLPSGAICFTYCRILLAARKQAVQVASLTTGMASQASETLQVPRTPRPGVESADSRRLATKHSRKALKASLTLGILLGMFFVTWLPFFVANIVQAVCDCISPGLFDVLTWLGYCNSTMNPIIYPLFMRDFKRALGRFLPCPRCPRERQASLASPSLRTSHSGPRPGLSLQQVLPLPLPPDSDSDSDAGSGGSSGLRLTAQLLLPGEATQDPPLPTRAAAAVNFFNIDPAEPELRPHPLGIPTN
Procedure: Compounds of the invention were incubated with 1.5 nM [3H]Lysergic acid diethylamide (LSD) for 120 min at 37° C. […] Receptor proteins were filtered and washed, the filters were then counted to determine [3H]LSD specifically bound. Compounds were screened at 1 μM or lower, using 1% DMSO as vehicle. Biochemical assay results are presented as the percent inhibition of specific binding in Table 4.

[4] = target: T3, human recombinant serotonin (5-Hydroxytryptamine) 5-HT2C receptor (Homo sapiens, UniProt P28335); assay: Serotonin 5-HT2C radioligand binding assay ([3H]Mesulergine); settings: compound at 0.1 μM; 1 nM [3H]Mesulergine; CHO-K1 cells; read-out: Percent Inhibition of ligand binding, Serotonin (0.1 μM) 5-HT2C
T3 construct: expressed in transfected cells; host or cells: Chinese hamster ovary (CHO-K1) cells
T3 sequence (P28335 33-458): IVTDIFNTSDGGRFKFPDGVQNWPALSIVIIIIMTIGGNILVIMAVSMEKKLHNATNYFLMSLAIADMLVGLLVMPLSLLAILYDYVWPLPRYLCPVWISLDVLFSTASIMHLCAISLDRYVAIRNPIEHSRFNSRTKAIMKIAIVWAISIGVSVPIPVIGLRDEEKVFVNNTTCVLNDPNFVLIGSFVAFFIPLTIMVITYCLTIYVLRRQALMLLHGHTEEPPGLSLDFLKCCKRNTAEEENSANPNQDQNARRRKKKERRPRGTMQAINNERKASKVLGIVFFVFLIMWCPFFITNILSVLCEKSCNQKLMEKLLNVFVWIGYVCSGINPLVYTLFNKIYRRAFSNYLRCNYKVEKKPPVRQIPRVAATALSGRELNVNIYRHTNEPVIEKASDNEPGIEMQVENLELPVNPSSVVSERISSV
Procedure: as §1, with “1” for “0.5”, “[^3H]Mesulergine” for “[^3H]Ketanserin”

Structure (SMILES): COc1ccc(C(C)(O)Cn2c3c(c4cc(Cl)ccc42)CN(C)CC3)cc1F (stereo not drawn) [Compound 1-59, 1-(8-chloro-1,2,3,4-tetrahydro-2-methylpyrido[4,3-b]indol-5-yl)-2-(3-fluoro-4-methoxyphenyl)propan-2-ol]
- inhibition at 1 µM [1]: 96%

Structure (SMILES): CN1CCc2c(c3c(Cl)c(Cl)ccc3n2CC(C)(O)c2ccncc2)C1 (stereo not drawn) [Compound 1-18, 1-(8,9-dichloro-2-methyl-3,4-dihydro-1H-pyrido[4,3-b]indol-5(2H)-yl)-2-(pyridin-4-yl)propan-2-ol]
- inhibition at 1 µM [1]: 71%

Structure (SMILES): CN1CCc2c(c3ccc(Cl)cc3n2CC(C)(O)c2ccncc2)C1 (stereo not drawn) [Compound 1-12, 1-(7-chloro-2-methyl-3,4-dihydro-1H-pyrido[4,3-b]indol-5(2H)-yl)-2-(pyridin-4-yl)propan-2-ol]
- inhibition at 1 µM [1]: 82%

Structure (SMILES): CN1CCc2c(c3cc(Cl)ccc3n2CC(C)(O)c2ccncn2)C1 (stereo not drawn) [Compound 1-26, 1-(8-chloro-2-methyl-3,4-dihydro-1H-pyrido[4,3-b]indol-5(2H)-yl)-2-(pyrimidin-4-yl)propan-2-ol]
- inhibition at 0.1 µM [1]: 23%

Structure (SMILES): Cc1ccc2c(c1)c1c(n2CC(C)(O)c2ccncn2)CCN(C)C1 (stereo not drawn) [Compound 1-25, 1-(2,8-dimethyl-3,4-dihydro-1H-pyrido[4,3-b]indol-5(2H)-yl)-2-(pyrimidin-4-yl)propan-2-ol]
- inhibition at 0.1 µM [1]: 17%

Structure (SMILES): Cc1ccc2c(c1)c1c(n2CC(C)(O)c2cnccn2)CCN(C)C1 (stereo not drawn) [Compound 1-28, 1-(2,8-dimethyl-3,4-dihydro-1H-pyrido[4,3-b]indol-5(2H)-yl)-2-(pyrazin-2-yl)propan-2-ol]
- inhibition at 0.1 µM [1]: 30%

Structure (SMILES): CN1CCc2c(c3cc(F)ccc3n2CC(C)(O)c2ccncc2)C1 (stereo not drawn) [Compound 1-9, 1-(8-fluoro-2-methyl-3,4-dihydro-1H-pyrido[4,3-b]indol-5(2H)-yl)-2-(pyridin-4-yl)propan-2-ol]
- inhibition at 1 µM [1]: 77%

Structure (SMILES): Cc1ccc2c(c1)c1c(n2CC(O)(c2ccncc2)C(C)C)CCN(C)C1 (stereo not drawn) [Compound 1-22, 1-(2,8-dimethyl-3,4-dihydro-1H-pyrido[4,3-b]indol-5(2H)-yl)-3-methyl-2-(pyridin-4-yl)butan-2-ol]
- inhibition at 0.1 µM [1]: 71%

Structure (SMILES): COc1ccc2c(c1)c1c(n2CC(C)(O)c2ccncc2)CCN(C)C1 (stereo not drawn) [Compound 1-16, 1-(8-methoxy-2-methyl-3,4-dihydro-1H-pyrido[4,3-b]indol-5(2H)-yl)-2-(pyridin-4-yl)propan-2-ol]
- inhibition at 1 µM [1]: 50%

Structure (SMILES): CN1CCc2c(c3cc(Cl)ccc3n2CC(C)(O)c2cccnc2)C1 (stereo not drawn) [Compound 1-54, 1-(8-chloro-1,2,3,4-tetrahydro-2-methylpyrido[4,3-b]indol-5-yl)-2-(pyridin-3-yl)propan-2-ol]
- inhibition at 1 µM [1]: 77%

Structure (SMILES): CC(C)c1ccc2c3c(n(CC(C)(O)c4ccncc4)c2c1)CCN(C)C3 (stereo not drawn) [Compound 1-32, 1-(7-isopropyl-2-methyl-3,4-dihydro-1H-pyrido[4,3-b]indol-5(2H)-yl)-2-(pyridin-4-yl)propan-2-ol]
- inhibition at 0.1 µM [1]: -6%
- inhibition at 0.1 µM [2]: 31%
- inhibition at 0.1 µM [3]: -1%
- inhibition at 0.1 µM [4]: -6%

Structure (SMILES): COc1cccc2c3c(n(CC(C)(O)c4ccncc4)c12)CCN(C)C3 (stereo not drawn) [Compound 1-31, 1-(6-methoxy-2-methyl-3,4-dihydro-1H-pyrido[4,3-b]indol-5(2H)-yl)-2-(pyridin-4-yl)propan-2-ol]
- inhibition at 0.1 µM [1]: 8%
- inhibition at 0.1 µM [2]: -1%
- inhibition at 0.1 µM [3]: -7%
- inhibition at 0.1 µM [4]: 5%

Structure (SMILES): CC(C)C(O)(Cn1c2c(c3cc(Cl)ccc31)CN(C)CC2)c1ccncc1 (stereo not drawn) [Compound 1-21, 1-(8-chloro-2-methyl-3,4-dihydro-1H-pyrido[4,3-b]indol-5(2H)-yl)-3-methyl-2-(pyridin-4-yl)butan-2-ol]
- inhibition at 0.1 µM [1]: 68%

Structure (SMILES): Cc1ccc2c(c1)c1c(n2CC(C)(O)c2ccncc2)CCN(C2CC2)C1 (stereo not drawn) [Compound 1-30, 1-(2-cyclopropyl-8-methyl-3,4-dihydro-1H-pyrido[4,3-b]indol-5(2H)-yl)-2-(pyridin-4-yl)propan-2-ol]
- inhibition at 0.1 µM [1]: 14%
- inhibition at 0.1 µM [2]: 6%
- inhibition at 0.1 µM [3]: 1%
- inhibition at 0.1 µM [4]: 4%

Structure (SMILES): CCC(O)(Cn1c2c(c3cc(C)ccc31)CN(C)CC2)c1ccc(F)cc1 (stereo not drawn) [Compound 1-5, 1-(2,8-dimethyl-3,4-dihydro-1H-pyrido[4,3-b]indol-5(2H)-yl)-2-(4-fluorophenyl)butan-2-ol]
- inhibition at 1 µM [1]: 102%

Structure (SMILES): CCC(O)(Cn1c2c(c3cc(Cl)ccc31)CN(C)CC2)c1ccncc1 (stereo not drawn) [Compound 1-23, 1-(8-chloro-2-methyl-3,4-dihydro-1H-pyrido[4,3-b]indol-5(2H)-yl)-2-(pyridin-4-yl)butan-2-ol]
- inhibition at 0.1 µM [1]: 62%

Structure (SMILES): Cc1ccc2c(c1)c1c(n2CC(C)(O)c2ccncc2)CCN(C)C1 (stereo not drawn) [Compound 1-52, 1-(1,2,3,4-tetrahydro-2,8-dimethylpyrido[4,3-b]indol-5-yl)-2-(pyridin-4-yl)propan-2-ol]
- inhibition at 1 µM [1]: 88%

Structure (SMILES): Cc1ccc2c(c1)c1c(n2CC(O)c2ccc(F)cc2)CCN(C)C1 (stereo not drawn) [Compound 1-2, 2-(2,8-dimethyl-3,4-dihydro-1H-pyrido[4,3-b]indol-5(2H)-yl)-1-(4-fluorophenyl)ethanol]
- inhibition at 1 µM [1]: 91%

Structure (SMILES): CN1CCc2c(c3ccccc3n2CC(C)(O)c2ccncc2)C1 (stereo not drawn) [Compound 1-14, 1-(2-methyl-3,4-dihydro-1H-pyrido[4,3-b]indol-5(2H)-yl)-2-(pyridin-4-yl)propan-2-ol]
- inhibition at 1 µM [1]: 74%

Structure (SMILES): CN1CCc2c(c3cc(Cl)ccc3n2CC(C)(O)c2cnccn2)C1 (stereo not drawn) [Compound 1-27, 1-(8-chloro-2-methyl-3,4-dihydro-1H-pyrido[4,3-b]indol-5(2H)-yl)-2-(pyrazin-2-yl)propan-2-ol]
- inhibition at 0.1 µM [1]: 40%

Structure (SMILES): Cc1ccc2c(c1)c1c(n2CC(C)(O)c2ccncc2)CC(C)N(C)C1 (stereo not drawn) [Compound 1-33, 2-(pyridin-4-yl)-1-(2,3,8-trimethyl-3,4-dihydro-1H-pyrido[4,3-b]indol-5(2H)-yl)propan-2-ol]
- inhibition at 0.1 µM [1]: 43%
- inhibition at 0.1 µM [2]: 40%
- inhibition at 0.1 µM [3]: -1%
- inhibition at 0.1 µM [4]: 56%

Structure (SMILES): Cc1ccc2c(c1)c1c(n2CC(C)(O)c2ccncc2)CCN(CC(F)(F)F)C1 (stereo not drawn) [Compound 1-29, 1-(8-methyl-2-(2,2,2-trifluoroethyl)-3,4-dihydro-1H-pyrido[4,3-b]indol-5(2H)-yl)-2-(pyridin-4-yl)propan-2-ol]
- inhibition at 0.1 µM [1]: 11%
- inhibition at 0.1 µM [2]: 2%
- inhibition at 0.1 µM [3]: 2%
- inhibition at 0.1 µM [4]: 3%

Structure (SMILES): CN1CCc2c(c3cc(Cl)ccc3n2CC(O)(c2ccc(F)cc2)C2CCC2)C1 (stereo not drawn) [Compound 1-6, 2-(8-chloro-2-methyl-3,4-dihydro-1H-pyrido[4,3-b]indol-5(2H)-yl)-1-cyclobutyl-1-(4-fluorophenyl)ethanol]
- inhibition at 1 µM [1]: 97%

Structure (SMILES): CN1CCc2c(c3cccc(F)c3n2CC(C)(O)c2ccncc2)C1 (stereo not drawn) [Compound 1-13, 1-(6-fluoro-2-methyl-3,4-dihydro-1H-pyrido[4,3-b]indol-5(2H)-yl)-2-(pyridin-4-yl)propan-2-ol]
- inhibition at 1 µM [1]: 82%
